Experimental data as given in ChEMBL document CHEMBL5316337, “Critical Role of Position 10 Residue in the Polymyxin Antimicrobial Activity” (J Med Chem, 2023).
In brackets after ≈: the same amount, converted by molar mass. Bridge positions count the residues as written; N and C are the ends. Square brackets hold non-standard residues; d marks the D form. Peptide text beside a SMILES is read from it. * marks the point of attachment. X1 = CC[C@H](C)CCCCC(=O)*; Dab = NCC[C@H](N)C(=O)O

What was measured:
Pseudomonas aeruginosa [1] = test: Antibacterial activity against polymyxin-susceptible Pseudomonas aeruginosa ATCC 27853 clinical isolates assessed as reduction in bacterial growth by broth microdilution method; format: functional
Pseudomonas aeruginosa [2] = test: Antibacterial activity against Carbapenem-resistant Pseudomonas aeruginosa FADD1-PA022 clinical isolates assessed as reduction in bacterial growth by broth microdilution method; format: functional
Pseudomonas aeruginosa [3] = test: Antibacterial activity against Carbapenem-resistant Pseudomonas aeruginosa FADD1-PA001 clinical isolates assessed as reduction in bacterial growth by broth microdilution method; format: functional
Pseudomonas aeruginosa [4] = test: Antibacterial activity against polymyxin-susceptible Pseudomonas aeruginosa FADD1-PA038 clinical isolates assessed as reduction in bacterial growth by broth microdilution method; format: functional
Pseudomonas aeruginosa [5] = test: Antibacterial activity against polymyxin-susceptible Pseudomonas aeruginosa FADD1-PA025 clinical isolates assessed as reduction in bacterial growth by broth microdilution method; format: functional
Acinetobacter baumannii [6] = test: Antibacterial activity against polymyxin-susceptible Acinetobacter baumannii ATCC 19606 clinical isolates assessed as reduction in bacterial growth by broth microdilution method; format: functional
Acinetobacter baumannii [7] = test: Antibacterial activity against Carbapenem-resistant Acinetobacter baumannii FADD1-AB034 clinical isolates assessed as reduction in bacterial growth by broth microdilution method; format: functional
Acinetobacter baumannii [8] = test: Antibacterial activity against polymyxin-susceptible Acinetobacter baumannii ATCC 17978 clinical isolates assessed as reduction in bacterial growth by broth microdilution method; format: functional
Acinetobacter baumannii [9] = test: Antibacterial activity against Carbapenem-resistant Acinetobacter baumannii FADD1-AB030 clinical isolates assessed as reduction in bacterial growth by broth microdilution method; format: functional
Klebsiella pneumoniae [10] = test: Antibacterial activity against Carbapenem-resistant Klebsiella pneumoniae FADD1-KP032 clinical isolates assessed as reduction in bacterial growth by broth microdilution method; format: functional
Klebsiella pneumoniae [11] = test: Antibacterial activity against Carbapenem-resistant Klebsiella pneumoniae FADD1-KP022 clinical isolates assessed as reduction in bacterial growth by broth microdilution method; format: functional
Klebsiella pneumoniae [12] = test: Antibacterial activity against Carbapenem-resistant Klebsiella pneumoniae BM1 clinical isolates assessed as reduction in bacterial growth by broth microdilution method; format: functional
Klebsiella pneumoniae [13] = test: Antibacterial activity against polymyxin-susceptible Klebsiella pneumoniae ATCC 700721 clinical isolates assessed as reduction in bacterial growth by broth microdilution method; format: functional
Klebsiella pneumoniae [14] = test: Antibacterial activity against Carbapenem-resistant Klebsiella pneumoniae FADD1-KP065 clinical isolates assessed as reduction in bacterial growth by broth microdilution method; format: functional
Enterobacter cloacae [15] = test: Antibacterial activity against polymyxin-susceptible Enterobacter cloacae FADD1-EC006 clinical isolates assessed as reduction in bacterial growth by broth microdilution method; format: functional
Enterobacter cloacae [16] = test: Antibacterial activity against polymyxin-susceptible Enterobacter cloacae FADD1-EC001 clinical isolates assessed as reduction in bacterial growth by broth microdilution method; format: functional
Enterobacter cloacae [17] = test: Antibacterial activity against polymyxin-susceptible Enterobacter cloacae FADD1-EC003 clinical isolates assessed as reduction in bacterial growth by broth microdilution method; format: functional
[18] = Acute toxicity in Swiss mouse assessed as maximum tolerated dose administered intravenously measured over 24 hrs; settings: in vivo, route iv
[19] = Nephrotoxicity in Swiss mouse assessed as histopathological changes in kidney by measuring semiquantitative score at 12 mg/kg, sc administered as free base every 2 hrs for 6 doses and measured at 20 hrs; format: toxicity, organism-based; settings: in vivo

SMILES | MIC (Pseudomonas aeruginosa [1]) [µg/mL] | MIC (Pseudomonas aeruginosa [2]) [µg/mL] | MIC (Pseudomonas aeruginosa [3]) [µg/mL] | MIC (Pseudomonas aeruginosa [4]) [µg/mL] | MIC (Pseudomonas aeruginosa [5]) [µg/mL] | MIC (Acinetobacter baumannii [6]) [µg/mL] | MIC (Acinetobacter baumannii [7]) [µg/mL] | MIC (Acinetobacter baumannii [8]) [µg/mL] | MIC (Acinetobacter baumannii [9]) [µg/mL] | MIC (Klebsiella pneumoniae [10]) [µg/mL] | MIC (Klebsiella pneumoniae [11]) [µg/mL] | MIC (Klebsiella pneumoniae [12]) [µg/mL] | MIC (Klebsiella pneumoniae [13]) [µg/mL] | MIC (Klebsiella pneumoniae [14]) [µg/mL] | MIC (Enterobacter cloacae [15]) [µg/mL] | MIC (Enterobacter cloacae [16]) [µg/mL] | MIC (Enterobacter cloacae [17]) [µg/mL] | MTD at 24 h [18] [mg/kg] | Activity [19]
CC[C@H](C)CCCCC(=O)N[C@@H](CCN)C(=O)N[C@H](C(=O)N[C@@H](CCN)C(=O)N[C@H]1CCNC(=O)[C@H]([C@@H](C)O)NC(=O)[C@H](CCN)NC(=O)[C@H](CCN)NC(=O)[C@H](CC(C)C)NC(=O)[C@@H](Cc2ccccc2)NC(=O)[C@H](CCN)NC1=O)[C@@H](C)O | 1 (≈ 0.831 µM) | 2 (≈ 1.66 µM) | 2 (≈ 1.66 µM) | 4 (≈ 3.32 µM) | 4 (≈ 3.32 µM) | 1 (≈ 0.831 µM) | 1 (≈ 0.831 µM) | 1 (≈ 0.831 µM) | 1 (≈ 0.831 µM) | 0.25 (≈ 0.208 µM) | 0.25 (≈ 0.208 µM) | 0.5 (≈ 0.415 µM) | 1 (≈ 0.831 µM) | 0.5 (≈ 0.415 µM) | 0.5 (≈ 0.415 µM) | 0.5 (≈ 0.415 µM) | 0.5 (≈ 0.415 µM) | 4 | 
CC[C@H](C)CCCCC(=O)N[C@@H](CCN)C(=O)N[C@H](C(=O)N[C@@H](CCN)C(=O)N[C@H]1CCNC(=O)[C@H](CC(=O)O)NC(=O)[C@H](CCN)NC(=O)[C@H](CCN)NC(=O)[C@H](CC(C)C)NC(=O)[C@@H](Cc2ccccc2)NC(=O)[C@H](CCN)NC1=O)[C@@H](C)O | > 32 | 8 (≈ 6.57 µM) | > 32 | > 32 | > 32 | > 32 | > 32 | > 32 | > 32 | 32 (≈ 26.3 µM) | 16 (≈ 13.1 µM) | 32 (≈ 26.3 µM) | > 32 | 16 (≈ 13.1 µM) | > 32 | > 32 | > 32 |  | 
CC[C@H](C)CCCCC(=O)N[C@@H](CCN)C(=O)N[C@H](C(=O)N[C@@H](CCN)C(=O)N[C@H]1CCNC(=O)[C@H](C)NC(=O)[C@H](CCN)NC(=O)[C@H](CCN)NC(=O)[C@H](CC(C)C)NC(=O)[C@@H](Cc2ccccc2)NC(=O)[C@H](CCN)NC1=O)[C@@H](C)O | 1 (≈ 0.852 µM) | 1 (≈ 0.852 µM) | 1 (≈ 0.852 µM) | 8 (≈ 6.82 µM) | 1 (≈ 0.852 µM) | 1 (≈ 0.852 µM) | 1 (≈ 0.852 µM) | 1 (≈ 0.852 µM) | 1 (≈ 0.852 µM) | 1 (≈ 0.852 µM) | 0.5 (≈ 0.426 µM) | 2 (≈ 1.7 µM) | 4 (≈ 3.41 µM) | 0.5 (≈ 0.426 µM) | 4 (≈ 3.41 µM) | 2 (≈ 1.7 µM) | 1 (≈ 0.852 µM) | 2.7 | 0
CC[C@H](C)CCCCC(=O)N[C@@H](CCN)C(=O)N[C@H](C(=O)N[C@@H](CCN)C(=O)N[C@H]1CCNC(=O)[C@H](CCC(=O)O)NC(=O)[C@H](CCN)NC(=O)[C@H](CCN)NC(=O)[C@H](CC(C)C)NC(=O)[C@@H](Cc2ccccc2)NC(=O)[C@H](CCN)NC1=O)[C@@H](C)O | > 32 | > 32 | > 32 | > 32 | > 32 | > 32 | > 32 | > 32 | > 32 | > 32 | 32 (≈ 26 µM) | > 32 | > 32 | > 32 | > 32 | > 32 | > 32 |  | 
CC[C@H](C)CCCCC(=O)N[C@@H](CCN)C(=O)N[C@H](C(=O)N[C@@H](CCN)C(=O)N[C@H]1CCNC(=O)[C@H]([C@H](C)O)NC(=O)[C@H](CCN)NC(=O)[C@H](CCN)NC(=O)[C@H](CC(C)C)NC(=O)[C@@H](Cc2ccccc2)NC(=O)[C@H](CCN)NC1=O)[C@@H](C)O | 1 (≈ 0.831 µM) | 1 (≈ 0.831 µM) | 1 (≈ 0.831 µM) | 4 (≈ 3.32 µM) | 2 (≈ 1.66 µM) | 8 (≈ 6.65 µM) | 2 (≈ 1.66 µM) | 4 (≈ 3.32 µM) | 2 (≈ 1.66 µM) | 2 (≈ 1.66 µM) | 0.25 (≈ 0.208 µM) | 1 (≈ 0.831 µM) | 1 (≈ 0.831 µM) | 0.5 (≈ 0.415 µM) | 8 (≈ 6.65 µM) | 2 (≈ 1.66 µM) | 1 (≈ 0.831 µM) | 4.1 | 0
CC[C@H](C)CCCCC(=O)N[C@@H](CCN)C(=O)N[C@H](C(=O)N[C@@H](CCN)C(=O)N[C@H]1CCNC(=O)[C@H](CO)NC(=O)[C@H](CCN)NC(=O)[C@H](CCN)NC(=O)[C@H](CC(C)C)NC(=O)[C@@H](Cc2ccccc2)NC(=O)[C@H](CCN)NC1=O)[C@@H](C)O | 0.5 (≈ 0.42 µM) | 0.5 (≈ 0.42 µM) | 0.5 (≈ 0.42 µM) | 1 (≈ 0.841 µM) | 2 (≈ 1.68 µM) | 2 (≈ 1.68 µM) | 1 (≈ 0.841 µM) | 1 (≈ 0.841 µM) | 1 (≈ 0.841 µM) | 0.25 (≈ 0.21 µM) | < 0.125 | 0.25 (≈ 0.21 µM) | 0.5 (≈ 0.42 µM) | 0.25 (≈ 0.21 µM) | 0.5 (≈ 0.42 µM) | 0.5 (≈ 0.42 µM) | 0.25 (≈ 0.21 µM) | 4.1 | 
CC[C@H](C)CCCCC(=O)N[C@@H](CCN)C(=O)N[C@H](C(=O)N[C@@H](CCN)C(=O)N[C@H]1CCNC(=O)[C@H](CC)NC(=O)[C@H](CCN)NC(=O)[C@H](CCN)NC(=O)[C@H](CC(C)C)NC(=O)[C@@H](Cc2ccccc2)NC(=O)[C@H](CCN)NC1=O)[C@@H](C)O | 1 (≈ 0.842 µM) | 1 (≈ 0.842 µM) | 1 (≈ 0.842 µM) | 2 (≈ 1.68 µM) | 1 (≈ 0.842 µM) | 2 (≈ 1.68 µM) | 2 (≈ 1.68 µM) | 2 (≈ 1.68 µM) | 1 (≈ 0.842 µM) | 1 (≈ 0.842 µM) | 0.25 (≈ 0.211 µM) | 0.5 (≈ 0.421 µM) | 4 (≈ 3.37 µM) | 0.5 (≈ 0.421 µM) | 4 (≈ 3.37 µM) | 2 (≈ 1.68 µM) | 1 (≈ 0.842 µM) | 4.1 | 0
CC[C@H](C)CCCCC(=O)N[C@@H](CCN)C(=O)N[C@H](C(=O)N[C@@H](CCN)C(=O)N[C@H]1CCNC(=O)[C@H](CC(C)C)NC(=O)[C@H](CCN)NC(=O)[C@H](CCN)NC(=O)[C@H](CC(C)C)NC(=O)[C@@H](Cc2ccccc2)NC(=O)[C@H](CCN)NC1=O)[C@@H](C)O (X1-[Dab]T[Dab][Dab][Dab][dF]L[Dab][Dab]L; lactam 4-C) | 2 (≈ 1.65 µM) | 1 (≈ 0.823 µM) | 1 (≈ 0.823 µM) | 2 (≈ 1.65 µM) | 2 (≈ 1.65 µM) | 16 (≈ 13.2 µM) | 8 (≈ 6.58 µM) | 2 (≈ 1.65 µM) | 1 (≈ 0.823 µM) | 4 (≈ 3.29 µM) | 0.25 (≈ 0.206 µM) | 2 (≈ 1.65 µM) | 4 (≈ 3.29 µM) | 0.5 (≈ 0.411 µM) | 4 (≈ 3.29 µM) | 2 (≈ 1.65 µM) | 4 (≈ 3.29 µM) | 6.1 | 
